ChEMBL document CHEMBL1143057, “Small molecule designed to target metal binding site in the alpha2I domain inhibits integrin function” (J Med Chem, 2007)
The source made the active and inactive calls. The rule behind the calls is not given here.

What was measured:
[1] = target: T1, Integrin alpha-10 (Homo sapiens) (UniProt O75578); assay: Inhibition of integrin alpha-10 binding to collagen 1 at 50 uM
T1 sequence (whole entry): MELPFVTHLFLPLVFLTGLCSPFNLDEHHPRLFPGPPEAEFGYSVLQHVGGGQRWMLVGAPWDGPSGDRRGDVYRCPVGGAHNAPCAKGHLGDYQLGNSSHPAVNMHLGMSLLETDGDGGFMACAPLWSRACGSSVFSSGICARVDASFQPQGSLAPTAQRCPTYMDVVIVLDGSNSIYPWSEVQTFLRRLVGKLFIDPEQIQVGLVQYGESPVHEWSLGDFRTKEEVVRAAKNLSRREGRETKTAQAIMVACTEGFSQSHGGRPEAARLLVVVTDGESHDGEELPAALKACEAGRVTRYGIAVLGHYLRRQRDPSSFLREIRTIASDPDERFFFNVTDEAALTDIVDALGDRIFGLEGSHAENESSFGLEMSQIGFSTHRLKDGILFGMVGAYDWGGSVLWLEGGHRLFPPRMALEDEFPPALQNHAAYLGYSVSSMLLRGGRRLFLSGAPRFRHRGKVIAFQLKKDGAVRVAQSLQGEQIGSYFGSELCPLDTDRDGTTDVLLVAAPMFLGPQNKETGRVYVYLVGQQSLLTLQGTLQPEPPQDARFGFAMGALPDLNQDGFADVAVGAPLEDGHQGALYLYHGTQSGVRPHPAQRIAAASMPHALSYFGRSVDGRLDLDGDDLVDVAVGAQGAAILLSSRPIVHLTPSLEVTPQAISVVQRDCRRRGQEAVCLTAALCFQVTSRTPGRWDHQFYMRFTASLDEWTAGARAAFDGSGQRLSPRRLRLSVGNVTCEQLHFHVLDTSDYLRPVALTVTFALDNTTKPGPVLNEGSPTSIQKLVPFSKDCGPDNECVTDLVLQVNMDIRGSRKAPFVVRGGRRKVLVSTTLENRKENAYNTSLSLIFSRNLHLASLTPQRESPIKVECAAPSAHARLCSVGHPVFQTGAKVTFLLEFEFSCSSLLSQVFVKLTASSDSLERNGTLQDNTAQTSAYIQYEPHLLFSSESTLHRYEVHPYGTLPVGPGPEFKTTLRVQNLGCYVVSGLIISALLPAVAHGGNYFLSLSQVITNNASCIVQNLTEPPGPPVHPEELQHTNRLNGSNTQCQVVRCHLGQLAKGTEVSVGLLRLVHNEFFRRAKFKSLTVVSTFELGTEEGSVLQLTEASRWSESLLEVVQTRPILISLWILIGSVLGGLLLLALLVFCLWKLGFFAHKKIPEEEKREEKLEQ

[2] = target: Integrin alpha-2 (Homo sapiens) (UniProt P17301); assay: Inhibition of integrin alpha-2 domain binding to collagen 1 by Europium-labeled anti-GST assay relative to control; conditions: concentration not given here
CHO [3] = assay: Cytotoxicity against CHO cells at =< 50 uM; assay type: cell-based, Cricetulus griseus; conditions: chinese hamster
[4] = target: T2, Integrin alpha-11 (Homo sapiens) (UniProt Q9UKX5); assay: Inhibition of integrin alpha-11 binding to collagen 1 at 50 uM
T2 sequence (whole entry): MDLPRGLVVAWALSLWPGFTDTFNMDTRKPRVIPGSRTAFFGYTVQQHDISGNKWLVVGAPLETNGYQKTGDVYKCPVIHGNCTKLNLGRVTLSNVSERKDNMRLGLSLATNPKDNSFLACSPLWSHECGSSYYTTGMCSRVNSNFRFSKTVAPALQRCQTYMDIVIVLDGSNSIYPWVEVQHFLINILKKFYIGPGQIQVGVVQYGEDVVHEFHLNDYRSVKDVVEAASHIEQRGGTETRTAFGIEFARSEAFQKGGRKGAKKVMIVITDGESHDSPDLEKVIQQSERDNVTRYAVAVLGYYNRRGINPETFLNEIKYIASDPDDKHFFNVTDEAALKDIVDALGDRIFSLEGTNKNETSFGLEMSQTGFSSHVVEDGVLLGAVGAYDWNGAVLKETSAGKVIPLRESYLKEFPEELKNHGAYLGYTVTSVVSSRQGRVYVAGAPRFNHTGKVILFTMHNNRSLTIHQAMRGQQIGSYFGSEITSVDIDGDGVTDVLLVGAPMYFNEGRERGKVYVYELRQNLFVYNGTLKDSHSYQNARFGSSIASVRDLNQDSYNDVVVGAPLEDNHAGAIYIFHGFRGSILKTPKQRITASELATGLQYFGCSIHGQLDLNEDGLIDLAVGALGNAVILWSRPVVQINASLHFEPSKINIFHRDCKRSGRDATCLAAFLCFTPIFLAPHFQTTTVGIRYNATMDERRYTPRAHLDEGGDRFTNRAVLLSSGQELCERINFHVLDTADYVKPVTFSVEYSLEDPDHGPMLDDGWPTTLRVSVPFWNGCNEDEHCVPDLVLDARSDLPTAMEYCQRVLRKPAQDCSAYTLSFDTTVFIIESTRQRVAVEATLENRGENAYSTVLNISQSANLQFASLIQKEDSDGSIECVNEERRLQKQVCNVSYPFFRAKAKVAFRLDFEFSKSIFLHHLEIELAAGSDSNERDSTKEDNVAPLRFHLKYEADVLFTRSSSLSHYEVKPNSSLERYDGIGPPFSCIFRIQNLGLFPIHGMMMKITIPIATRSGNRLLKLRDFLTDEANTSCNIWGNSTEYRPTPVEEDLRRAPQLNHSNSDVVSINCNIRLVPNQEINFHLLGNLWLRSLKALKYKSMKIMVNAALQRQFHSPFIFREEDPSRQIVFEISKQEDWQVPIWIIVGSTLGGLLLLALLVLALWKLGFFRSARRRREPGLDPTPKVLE

CHO [5] = assay: Inhibition of integrin alpha-2 expressing CHO cell adhesion to collagen 1 at 10 uM; assay type: functional; conditions: Cricetulus griseus
[6] = target: Integrin alpha-2 (Homo sapiens) (UniProt P17301); assay: Inhibition of integrin alpha-2 binding to collagen 4 at 50 uM
[7] = target: Integrin alpha-1 (Homo sapiens) (UniProt P56199); assay: Inhibition of integrin alpha-1 binding to collagen 4 at 50 uM
[8] = target: Integrin alpha-1 (Homo sapiens) (UniProt P56199); assay: Inhibition of integrin alpha-1 binding to collagen 1 at 50 uM
Integrin alpha-2 = target: T3, Integrin alpha-2 (Homo sapiens, UniProt P17301); assay: Inhibition of integrin alpha-2 domain binding to collagen 1 by Europium-labeled anti-GST assay
T3 sequence (P17301 whole entry): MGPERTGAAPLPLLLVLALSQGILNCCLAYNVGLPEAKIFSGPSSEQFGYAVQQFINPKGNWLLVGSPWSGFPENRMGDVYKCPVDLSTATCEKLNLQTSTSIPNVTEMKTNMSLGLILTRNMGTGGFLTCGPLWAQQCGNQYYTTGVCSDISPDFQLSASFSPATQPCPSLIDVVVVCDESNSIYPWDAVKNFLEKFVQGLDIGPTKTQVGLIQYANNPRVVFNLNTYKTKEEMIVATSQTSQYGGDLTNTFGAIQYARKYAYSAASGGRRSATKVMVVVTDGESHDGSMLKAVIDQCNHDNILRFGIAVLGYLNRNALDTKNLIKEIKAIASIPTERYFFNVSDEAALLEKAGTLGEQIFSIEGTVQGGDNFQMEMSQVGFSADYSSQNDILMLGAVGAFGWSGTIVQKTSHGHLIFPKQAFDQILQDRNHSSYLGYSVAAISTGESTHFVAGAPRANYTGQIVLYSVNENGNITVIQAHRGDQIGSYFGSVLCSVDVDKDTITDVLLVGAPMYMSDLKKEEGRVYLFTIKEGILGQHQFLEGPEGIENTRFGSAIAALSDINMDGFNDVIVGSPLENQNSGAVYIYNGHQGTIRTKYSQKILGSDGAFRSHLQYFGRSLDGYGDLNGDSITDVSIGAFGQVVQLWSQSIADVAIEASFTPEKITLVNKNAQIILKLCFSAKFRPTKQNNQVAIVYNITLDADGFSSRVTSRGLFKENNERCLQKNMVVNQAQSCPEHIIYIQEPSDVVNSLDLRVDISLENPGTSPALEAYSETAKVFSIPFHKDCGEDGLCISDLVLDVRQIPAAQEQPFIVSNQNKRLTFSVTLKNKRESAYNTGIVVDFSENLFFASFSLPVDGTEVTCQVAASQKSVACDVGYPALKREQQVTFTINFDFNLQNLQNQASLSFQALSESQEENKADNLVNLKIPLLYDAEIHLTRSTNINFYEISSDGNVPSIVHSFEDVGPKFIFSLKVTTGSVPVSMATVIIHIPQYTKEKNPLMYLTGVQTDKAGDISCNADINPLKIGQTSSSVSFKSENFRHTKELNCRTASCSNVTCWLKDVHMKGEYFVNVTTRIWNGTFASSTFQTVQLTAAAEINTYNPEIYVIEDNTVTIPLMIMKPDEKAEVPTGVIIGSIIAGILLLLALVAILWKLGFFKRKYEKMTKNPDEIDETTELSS

CHO [9] = assay: Cytotoxicity against CHO cells at =< 200 uM; assay type: cell-based, Cricetulus griseus; conditions: chinese hamster
[10] = Inhibition of integrin alpha-2 E318W mutant binding to collagen 4 by Europium-labeled anti-GST assay; design: species or system Homo sapiens
[11] = Inhibition of integrin alpha-2 E318W mutant binding to collagen 1 by Europium-labeled anti-GST assay; design: species or system Homo sapiens
CHO [12] = assay: Inhibition of integrin alpha2 Y285F beta-1 mutant binding to collagen 1 in CHO cells; assay type: cell-based; conditions: Homo sapiens

Integrin alpha-1 (Homo sapiens), sequence (P56199 whole entry): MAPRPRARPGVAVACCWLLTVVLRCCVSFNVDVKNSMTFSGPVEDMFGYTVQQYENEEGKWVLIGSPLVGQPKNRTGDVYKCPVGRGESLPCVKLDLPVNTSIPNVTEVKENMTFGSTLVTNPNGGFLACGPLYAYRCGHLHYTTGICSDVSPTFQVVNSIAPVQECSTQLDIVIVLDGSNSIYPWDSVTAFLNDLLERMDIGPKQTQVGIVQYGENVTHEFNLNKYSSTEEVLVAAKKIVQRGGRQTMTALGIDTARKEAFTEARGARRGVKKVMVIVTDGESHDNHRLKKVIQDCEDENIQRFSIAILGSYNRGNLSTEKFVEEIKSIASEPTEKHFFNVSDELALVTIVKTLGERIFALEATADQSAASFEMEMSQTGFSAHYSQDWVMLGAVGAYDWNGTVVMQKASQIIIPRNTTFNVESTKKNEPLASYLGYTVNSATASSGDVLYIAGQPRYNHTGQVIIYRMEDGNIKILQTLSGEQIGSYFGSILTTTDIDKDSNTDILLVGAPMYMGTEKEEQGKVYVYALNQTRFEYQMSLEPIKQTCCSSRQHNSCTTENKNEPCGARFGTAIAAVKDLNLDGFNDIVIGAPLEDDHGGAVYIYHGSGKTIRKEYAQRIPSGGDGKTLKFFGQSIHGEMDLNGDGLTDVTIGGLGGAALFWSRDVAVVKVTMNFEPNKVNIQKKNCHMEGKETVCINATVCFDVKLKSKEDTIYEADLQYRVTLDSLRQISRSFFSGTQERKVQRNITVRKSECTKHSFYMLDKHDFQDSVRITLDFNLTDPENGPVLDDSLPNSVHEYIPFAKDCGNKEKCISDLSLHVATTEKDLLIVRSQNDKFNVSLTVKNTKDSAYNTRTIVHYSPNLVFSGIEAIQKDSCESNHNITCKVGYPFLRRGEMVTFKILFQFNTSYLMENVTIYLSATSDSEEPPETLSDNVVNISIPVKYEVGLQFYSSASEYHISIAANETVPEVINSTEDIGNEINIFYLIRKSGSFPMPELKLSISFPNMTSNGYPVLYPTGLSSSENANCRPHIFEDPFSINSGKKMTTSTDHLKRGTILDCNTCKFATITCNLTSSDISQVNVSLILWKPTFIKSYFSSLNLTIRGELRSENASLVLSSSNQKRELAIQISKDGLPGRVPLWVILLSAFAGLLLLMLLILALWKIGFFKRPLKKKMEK

Row | SMILES | inhibition [2] [%] | Activity (CHO [3]) | inhibition at 10 µM (CHO [5]) [%] | Activity (CHO [9]) | also measured
1 | COC(=O)c1c(C(C)C)cc(O)c2c(O)c3c(c(O)c12)C(=O)c1cccc(O)c1C3=O | 90 | Non-toxic | 40 | – | Activity [1]: Active; Activity [4]: Active
2 | CCc1cc(O)c2c(O)c3c(cc2c1C(=O)OC)C(=O)c1cccc(O)c1C3=O | – | – | – | – | Activity [6]: Active; Activity [7]: Active; Activity [8]: Active; IC50 (Integrin alpha-2): 50 µM
3 | CCC1(O)CC(=O)c2c(O)c3c(c(O)c2C1C(=O)OC)C(=O)c1cccc(O)c1C3=O (stereo unspecified) [MAGGIEMYCIN] | 65 | – | 10 | Non-toxic | –
4 | CCc1cc(NCCO)c2c(O)c3c(c(O)c2c1C(=O)OC)C(=O)c1cccc(O)c1C3=O | 0 | – | 30 | Non-toxic | –
5 | CCc1cc(O)c2c(O)c3c(c(O)c2c1C(=O)OC)C(=O)c1cccc(O)c1C3=O [ANHYDROMAGGIEMYCIN] | 100 | Non-toxic | 35 | – | IC50 [10]: 131 µM; IC50 [11]: 160 µM; inhibition (CHO [12]): -3.3%
